Source: paper PMC9546217, “Exploring novel nitrofuranyl sulfonohydrazides as anti‐Leishmania and anti‐cancer agents: Synthesis, in vitro efficacy and hit identification” (Chemical Biology & Drug Design, 2022)
Read-outs that look alike come from different tables or passages of the source.

Assays:
[1] = tested on: L. donovani strain 1S amastigotes; assay: Anti-amastigote assay (intramacrophage, THP-1 host, resazurin); type: cell-based; settings: for IC50: L. donovani 1S, read-out: 1S IC50 ± SD, Amastigote; for Selectivity index SI4: L. donovani 1S: IC50 THP‐1/IC50 amastigote; for Selectivity index SI3: L. donovani 1S: IC50 Vero/IC50 amastigote; for Specificity index SpI2: L. donovani 1S: IC50 promastigote/IC50 amastigote
Experimental: (§1) The activities of synthesized compounds against the intramacrophage parasites of the three Leishmania strains were evaluated using a modified, resazurin‐based method (Jain et al., [2012]; Njanpa et al., [2021]). Suspension cultures of human acute monocytic leukemia (THP‐1) cells were maintained in RPMI‐1640 medium (Sigma Aldrich) supplemented with 10% FBS and 1% penicillin–streptomycin, at 37°C and 5% CO2 in a humidified atmosphere. Duplicate 96‐well plates (for respective anti‐amastigote and cytotoxicity assays) were seeded with 200 μl of a 2.5 × 10^5 cells/ml suspension treated with 25 ng/ml phorbol 12‐myristate 13‐acetate (PMA), followed by 48‐h incubation to promote differentiation into adherent macrophages.
(§2) For the anti‐amastigote assay, differentiated plates were carefully washed with PBS, followed by the addition of 200 μl of stationary phase promastigotes in RPMI 1640 medium with 2% FBS. An MOI of 30:1 was used for all three Leishmania strains. The parasite‐treated plates were incubated for 24 h at 32°C (L. major) or 37°C (L. donovani) and 5% CO2 to promote infection of the macrophages. […] Blanks were represented by growth medium without cells, as well as parasite‐free THP‐1 cells. The treated plates were incubated for 72 h.
(§3) After incubation, the plates were gently washed three times with PBS to remove any remaining extracellular parasites. The wells were then treated with 20 μl of 0.05% sodium dodecyl sulfate in PBS for 30 s to lyse the host macrophages. Lysis was terminated by adding 180 μl promastigote growth medium with 10% FBS. To initiate the resazurin assay, 10 μl of resazurin solution (0.025% in PBS) was added to all wells and the plates were incubated for 24 h at 32°C (L. major) or 37°C (L. donovani) and 5% CO2. Absorbance measurements, calculations, and IC50 determinations were performed as described for the antipromastigote assay (Supinfo S1).

[2] = tested on: L. major strain IR‐173 amastigotes; assay: as above; type: cell-based; settings: for IC50: read-out: Antileishmanial activity, IC50 ± SD, Amastigote; for Specificity index SpI1: L. major IR‐173: IC50 promastigote/IC50 amastigote; for Selectivity index SI2: L. major: IC50 THP‐1/IC50 amastigote
Experimental: as §1, §2, §3

[3] = tested on: L. donovani strain 9515 amastigotes; assay: as above; type: cell-based; settings: for IC50: L. donovani 9515, read-out: 9515 IC50 ± SD, Amastigote; for Selectivity index SI6: L. donovani 9515: IC50 THP‐1/IC50 amastigote; for Selectivity index SI5: L. donovani 9515: IC50 Vero/IC50 amastigote; for Specificity index SpI3: L. donovani 9515: IC50 promastigote/IC50 amastigote
Experimental: as §1, §2, §3

[4] = tested on: L. donovani strain 1S promastigotes; assay: Antipromastigote assay (resazurin); type: cell-based; settings: L. donovani 1S, read-out: 1S IC50 ± SD, Promastigote
Experimental: (§4) The antipromastigote activity of synthesized compounds was evaluated as described previously by Mangwegape et al. ([2021]) using three strains of L. donovani (1S (MHOM/SD/62/1S) and 9515 (MHOM/IN/95/9515)) and L. major (IR‐173 [MHOM/IR/−173]). The assay method is available in the Supinfo S1.
(§5) The antipromastigote activity of synthesized compounds was evaluated using a modified, resazurin-based method of Kulshrestha et al. ^2 and Siqueira-Neto et al. ^3 and on three Leishmania strains. Leishmania donovani (strains 1S (MHOM/SD/62/1S) and 9515 (MHOM/IN/95/9515)) and L. major (strain IR-173 (MHOM/IR/-173)) promastigotes were cultured in M199 with Hank's salts and 0.68 mM L-glutamine (Sigma Aldrich) supplemented with 50 U/mL Penicillin/Streptomycin solution (Lonza), 4.2 mM sodium bicarbonate, 25 mM Hepes, 10% fetal bovine serum, 0.25% hemin, 0.1% biotin, and 10 mM adenine (Sigma Aldrich) and the pH adjusted to 7.3 – 7.4. The promastigotes were maintained at 25 °C.
(§6) Amphothericin B (10 μM) served as the standard drug and growth medium without parasites served as the blank. The plates were incubated for 48 hours at 25 °C in humidified atmosphere. After incubation, 50 μL of resazurin solution (0.01% in PBS) was added to each well and the plates were further incubated at 25 °C in the dark for 24 hours. Absorbance was measured at 570 nm and 600 nm using the Thermofisher Scientific GO Multiscan plate reader. Data analysis was performed for each biological replicate using SkanIt 4.0 Research Edition software. Background absorbance of resazurin (600 nm) was subtracted from the absorbance values of resorufin (570 nm). The mean absorbance calculated and the percentage growth inhibition and cell viability were determined by the following equations: […]
(§7) The IC50 and Z-score were determined for each compound’s three biological replicates using the cell viability % values and GraphPad Prism 5. The mean IC50 of the biological replicates with standard deviation (SD) served as the final IC50 of each compound.

[5] = tested on: L. donovani strain 9515 promastigotes; assay: Antipromastigote assay (resazurin); type: cell-based; settings: L. donovani 9515, read-out: 9515 IC50 ± SD, Promastigote
Experimental: as §4, §5, §6, §7

[6] = tested on: L. major strain IR‐173 promastigotes; assay: Antipromastigote assay (resazurin); type: cell-based; settings: L. major IR‐173, read-out: Antileishmanial activity, IC50 ± SD, Promastigote
Experimental: as §4, §5, §6, §7

[7] = Cytotoxicity on differentiated host THP-1 macrophages, resazurin assay; type: cell-based, human; settings: human, PMA-differentiated THP-1 macrophages, read-out: Cytotoxicity, IC50 ± SD, THP‐1
Experimental: Duplicate 96‐well plates (for respective anti‐amastigote and cytotoxicity assays) were seeded with 200 μl of a 2.5 × 10^5 cells/ml suspension treated with 25 ng/ml phorbol 12‐myristate 13‐acetate (PMA), followed by 48‐h incubation to promote differentiation into adherent macrophages.
Cytotoxicity of the compounds on the differentiated host THP-1 cells were also evaluated. As mentioned, duplicate plates of differentiated THP-1 cells were prepared during the anti-amastigote assay. These plates were incubated for 72 hours to differentiate, instead of replacing the growth medium with parasite-containing medium after 48 hours. […] Blanks were growth medium without cells. The treated plates were incubated for 72 hours, followed by the addition of 50 μL of resazurin solution (0.01% in PBS) to each well and 24-hour incubation.

[8] = Basal cytotoxicity, resazurin assay; settings: African green monkey
Experimental: The assay method is available in the Supinfo S1.
African green monkey kidney epithelial (Vero) cells (Cellonex, South Africa) were cultured and the basal cytotoxicity of the synthesized compounds with antileishmanial and/or anticancer activity was evaluated using the resazurin assay, as described in Mangwegape et al. ^4 Emetine served as the standard cytotoxic drug. Further use of reference drugs, controls, data analysis, calculations and IC50 determinations were identical to that of the antileishmanial assay.

[9] = Leishmania major, THP-1, L. major IR‐173

Compound	IC50 ([1]; Leishmania donovani, THP-1)	IC50 [2, 9]	IC50 ([3]; Leishmania donovani, THP-1)	IC50 ([4]; Leishmania donovani)	IC50 ([5]; Leishmania donovani)	IC50 ([6]; Leishmania major)	IC50 at 72 h [7]	IC50 ([8]; Vero cells (kidney epithelial))	Selectivity index SI4 [1]	Selectivity index SI3 [1]	Specificity index SpI2 [1]	Selectivity index SI6 [3]	Selectivity index SI5 [3]	Specificity index SpI3 [3]	also measured
Cc1ccc(S(=O)(=O)N/N=C/c2ccc([N+](=O)[O-])o2)cc1 [2c, (E)-4-Methyl-N'-[(5-nitrofuran-2-yl)methylene]benzenesulfonohydrazide]	> 10 µM	> 10 µM	> 10 µM	> 10 µM	> 10 µM	> 10 µM									
CC(C)c1ccc(S(=O)(=O)N/N=C/c2ccc([N+](=O)[O-])o2)cc1 [2d, (E)-4-Isopropyl-N'-[(5-nitrofuran-2-yl)methylene]benzenesulfonohydrazide]	> 10 µM	< 10 µM	> 10 µM	5 ± 1.32 µM	3.62 ± 0.65 µM	4.71 ± 0.33 µM	93.1 ± 3.51 µM	22.2 ± 0.8 µM							Specificity index SpI1 [2]: 0.57; IC50 ([2]; L. major IR‐173): 8.3 ± 0.78 µM; Selectivity index SI2 [2]: 11
CC(C)(C)c1ccc(S(=O)(=O)N/N=C/c2ccc([N+](=O)[O-])o2)cc1 [2f, (E)-4-(tert-Butyl)-N'-[(5-nitrofuran-2-yl)methylene]benzenesulfonohydrazide]	6.36 µM	> 10 µM	9.62 ± 1.15 µM	5.29 ± 0.69 µM	3.5 ± 0.58 µM	6.93 ± 0.83 µM	84.6 ± 2.16 µM	29.2 ± 5.86 µM	13	5	0.83	9	3	0.36	
O=[N+]([O-])c1ccc(/C=N/NS(=O)(=O)c2ccc(-c3ccccc3)cc2)o1 [2h, (E)-N'-[(5-Nitrofuran-2-yl)methylene]-(1,1'-biphenyl)-4-sulfonohydrazide]	2.94 ± 0.3 µM	> 10 µM	6.29 ± 0.62 µM	1.45 ± 0.16 µM	1.53 ± 0.14 µM	2.49 ± 0.51 µM	50.4 ± 2.26 µM	16.4 ± 5.8 µM	17	6	0.49	8	3	0.24	
O=[N+]([O-])c1ccc(/C=N/NS(=O)(=O)c2cccc3c2OCCO3)o1 [2l, (E)-N'-[(5-Nitrofuran-2-yl)methylene]-2,3-dihydrobenzo[b][1,4]dioxine-5-sulfonohydrazide]	6.36 µM	> 10 µM	7.85 ± 0.21 µM	9.24 ± 1.32 µM	7.25 ± 0.11 µM	8.1 ± 0.03 µM	> 100 µM	41.2 ± 3.3 µM	> 16	6	1.45	> 13	5	0.92	
O=Cc1ccc([N+](=O)[O-])o1 [NFA, 5‐nitro‐2‐furaldehyde, reference compound]	> 10 µM	8.35 ± 0.89 µM	8.56 ± 0.65 µM	6.39 ± 0.26 µM	> 10 µM	7.28 ± 0.1 µM		23.2 ± 2.62 µM				9	3		Specificity index SpI1 [2]: 0.87; Selectivity index SI2 [2]: 10; Selectivity index SI1 ([2]; L. major: IC50 Vero/IC50 amastigote): 3
O=C1CN(/N=C/c2ccc([N+](=O)[O-])o2)C(=O)N1 [NFT, nitrofurantoin, reference compound]	> 10 µM	> 10 µM	8.56 ± 1.95 µM	> 10 µM	> 10 µM	> 10 µM	> 100 µM								IC50 [8]: > 100 µM
O=C(N/N=C/c1ccc([N+](=O)[O-])o1)c1ccc(O)cc1 [NFX, Nifuroxazide, reference compound]	> 10 µM	> 10 µM		> 10 µM	> 10 µM	> 10 µM	> 100 µM					> 14	> 14		IC50 [8]: > 100 µM
(E)-2,4,6-Trimethyl-N'-[(5-nitrofuran-2-yl)methylene]benzenesulfonohydrazide [2e]												> 16	6	0.65	IC50 [1]: > 10 µM; IC50 ([2]; L. major IR‐173): > 10 µM; IC50 [3]: 6.14 ± 0.83 µM; IC50 [4]: 3.04 ± 0.04 µM; IC50 [5]: 3.97 ± 1.08 µM; IC50 [6]: 7.09 ± 0.74 µM
